Legend:
Torin2 = compound: C1=CC(=CC(=C1)N2C(=O)C=CC3=CN=C4C=CC(=CC4=C32)C5=CN=C(C=C5)N)C(F)(F)F [Torin2]
AZD1775 = compound: C=CCn1c(=O)c2cnc(Nc3ccc(N4CCN(C)CC4)cc3)nc2n1-c1cccc(C(C)(C)O)n1 [AZD1775]
[1] = compound: CC(=O)Nc1cccc(-n2c(=O)n(C3CC3)c(=O)c3c(Nc4ccc(I)cc4F)n(C)c(=O)c(C)c32)c1
[2] = compound: CC(=O)c1c(C)c2cnc(Nc3ccc(N4CCNCC4)cn3)nc2n(C2CCCC2)c1=O
Ipatasertib/GDC0068 = compound: CC(C)NC[C@@H](C(=O)N1CCN(c2ncnc3c2[C@H](C)C[C@H]3O)CC1)c1ccc(Cl)cc1 [Ipatasertib/GDC0068]
INK128/MLN0128 = compound: CC(C)n1nc(-c2ccc3oc(N)nc3c2)c2c(N)ncnc21 [INK128/MLN0128]
SHP099 = compound: CC1(CCN(CC1)C2=CN=C(C(=N2)N)C3=C(C(=CC=C3)Cl)Cl)N [SHP099]
TGX221 = compound: CC1=CN2C(=O)C=C(N=C2C(=C1)C(C)NC3=CC=CC=C3)N4CCOCC4 [TGX221]
[3] = compound: CCCCOc1c(C(=O)c2c(F)cc(C)cc2F)c[nH]c2nncc1-2
[4] = compound: CCN1CCN(Cc2ccc(Nc3ncc(F)c(-c4cc(F)c5nc(C)n(C(C)C)c5c4)n3)nc2)CC1
Luminespib/NVP-AUY922 = compound: CCNC(=O)c1noc(-c2cc(C(C)C)c(O)cc2O)c1-c1ccc(CN2CCOCC2)cc1 [Luminespib/NVP-AUY922]
Volasertib/BI6727 = compound: CC[C@@H]1C(=O)N(C)c2cnc(Nc3ccc(C(=O)N[C@H]4CC[C@H](N5CCN(CC6CC6)CC5)CC4)cc3OC)nc2N1C(C)C [Volasertib/BI6727]
THZ-P1-2 = compound: CN(C)C/C=C/C(=O)NC1=CC=C(C=C1)C(=O)NC2=CC=CC(=C2)NC3=NC=NC(=C3)C4=CNC5=CC=CC=C54 [THZ-P1-2]
THZ531 = compound: CN(C)C/C=C/C(=O)Nc1ccc(C(=O)N2CCC[C@@H](Nc3ncc(Cl)c(-c4c[nH]c5ccccc45)n3)C2)cc1 [THZ531]
THZ1 = compound: CN(C)C/C=C/C(=O)Nc1ccc(C(=O)Nc2cccc(Nc3ncc(Cl)c(-c4c[nH]c5ccccc45)n3)c2)cc1 [THZ1]
BSJ-01-175 = compound: CN(C)C/C=C/C(=O)Nc1ccc(O[C@@H]2CCC[C@@H](Nc3ncc(Cl)c(-c4c[nH]c5ccccc45)n3)C2)cc1 [BSJ-01-175]
ABT-737 = compound: CN(C)CC[C@H](CSc1ccccc1)Nc1ccc(S(=O)(=O)NC(=O)c2ccc(N3CCN(Cc4ccccc4-c4ccc(Cl)cc4)CC3)cc2)cc1[N+](=O)[O-] [ABT-737]
senexin b = compound: CN1CCN(C(=O)c2ccc3cc(CCNc4ncnc5ccc(C#N)cc45)ccc3c2)CC1 [senexin b]
Saracatinib/AZD0530 = compound: CN1CCN(CCOc2cc(OC3CCOCC3)c3c(Nc4c(Cl)ccc5c4OCO5)ncnc3c2)CC1 [Saracatinib/AZD0530]
AZD2014 = compound: CNC(=O)c1cccc(-c2ccc3c(N4CCOC[C@@H]4C)nc(N4CCOC[C@@H]4C)nc3n2)c1 [AZD2014]
Rucaparib = compound: CNCc1ccc(-c2[nH]c3cc(F)cc4c3c2CCNC4=O)cc1 [Rucaparib]
[5] = compound: CNc1nc(-c2ccc3c(N)n[nH]c3c2)cc(N2C[C@@H](C(=O)NC3CCCCC3)CC[C@H]2C)n1
Cediranib/AZD2171 = compound: COc1cc2c(Oc3ccc4[nH]c(C)cc4c3F)ncnc2cc1OCCCN1CCCC1 [Cediranib/AZD2171]
Cabozantinib = compound: COc1cc2nccc(Oc3ccc(NC(=O)C4(C(=O)Nc5ccc(F)cc5)CC4)cc3)c2cc1OC [Cabozantinib]
[6] = compound: COc1ccc2c(c1)[C@]1(C[C@H]1c1ccc3c(/C=C/c4ccc(CN5C[C@@H](C)O[C@@H](C)C5)cc4)n[nH]c3c1)C(=O)N2
AZD6738 = compound: C[C@@H]1COCCN1c1cc(C2([S@](C)(=N)=O)CC2)nc(-c2cc[nH]c3nccc2-3)n1 [AZD6738]
Taselisib/GDC0032 = compound: Cc1nc(-c2cn3c(n2)-c2ccc(-c4cnn(C(C)(C)C(N)=O)c4)cc2OCC3)n(C(C)C)n1 [Taselisib/GDC0032]
Alpelisib/BYL719 = compound: Cc1nc(NC(=O)N2CCC[C@H]2C(N)=O)sc1-c1ccnc(C(C)(C)C(F)(F)F)c1 [Alpelisib/BYL719]
Dasatinib = compound: Cc1nc(Nc2ncc(C(=O)Nc3c(C)cccc3Cl)s2)cc(N2CCN(CCO)CC2)n1 [Dasatinib]
AZD7762 = compound: NC(=O)Nc1cc(-c2cccc(F)c2)sc1C(=O)N[C@H]1CCCNC1 [AZD7762]
Buparlisib/NVP-BKM120 = compound: Nc1cc(C(F)(F)F)c(-c2cc(N3CCOCC3)nc(N3CCOCC3)n2)cn1 [Buparlisib/NVP-BKM120]
Vorinostat = compound: O=C(CCCCCCC(=O)Nc1ccccc1)NO [Vorinostat]
Olaparib/AZD2281 = compound: O=C(c1cc(Cc2n[nH]c(=O)c3ccccc23)ccc1F)N1CCN(C(=O)C2CC2)CC1 [Olaparib/AZD2281]
Tivantinib/ARQ197 = compound: O=C1NC(=O)[C@@H](c2cn3c4c(cccc24)CCC3)[C@@H]1c1c[nH]c2ccccc12 [Tivantinib/ARQ197]
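Note: breast cancer and non-malignant breast epithelial cell lines, Deep Dye Drop or Dye Drop imaging, nine half-log doses, GR normalized to time-zero plates and DMSO-only controls.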

Cell Line | GR50, 72 h (Torin2) | GR50, 72 h (AZD1775) | GR50, 72 h [1] | GR50, 72 h [2] | GR50, 72 h (Ipatasertib/GDC0068) | GR50, 72 h (INK128/MLN0128) | GR50, 72 h (SHP099) | GR50, 72 h (TGX221) | GR50, 72 h [3] | GR50, 72 h [4] | GR50, 72 h (Luminespib/NVP-AUY922) | GR50, 72 h (Volasertib/BI6727) | GR50, 72 h (THZ-P1-2) | GR50, 72 h (THZ531) | GR50, 72 h (THZ1) | GR50, 72 h (BSJ-01-175) | GR50, 72 h (ABT-737) | GR50, 72 h (senexin b) | GR50, 72 h (Saracatinib/AZD0530) | GR50, 72 h (AZD2014) | GR50, 72 h (Rucaparib) | GR50, 72 h [5] | GR50, 72 h (Cediranib/AZD2171) | GR50, 72 h (Cabozantinib) | GR50, 72 h [6] | GR50, 72 h (AZD6738) | GR50, 72 h (Taselisib/GDC0032) | GR50, 72 h (Alpelisib/BYL719) | GR50, 72 h (Dasatinib) | GR50, 72 h (AZD7762) | GR50, 72 h (Buparlisib/NVP-BKM120) | GR50, 72 h (Vorinostat) | GR50, 72 h (Olaparib/AZD2281) | GR50, 72 h (Tivantinib/ARQ197)
HCC1419 | 0.0055 µM | 2.59 µM | 0.0308 µM | 0.462 µM | > 10 µM | 0.00475 µM | > 10 µM | > 10 µM | 0.65 µM | 0.0969 µM | 0.007 µM | 0.0207 µM | 6.2 µM | 0.162 µM | 0.0611 µM | 0.541 µM | 9.85 µM | 10 µM | 0.916 µM | < 0.001 µM | > 10 µM | 7.64 µM | 5.06 µM | > 10 µM | 0.00375 µM | 8.9 µM | 0.00918 µM | 0.669 µM | 0.825 µM | 0.0686 µM | 0.396 µM | 1.8 µM | > 10 µM | 0.473 µM
CAMA1 | 0.00918 µM | 5.45 µM | > 1 µM | 0.0742 µM | 0.341 µM | 0.00961 µM | > 10 µM | > 10 µM | < 0.001 µM | 0.00786 µM | 0.00885 µM | 0.00782 µM | 3.39 µM | 0.139 µM | 0.0336 µM | 0.101 µM | > 10 µM | 1.09 µM | > 10 µM | < 0.001 µM | > 10 µM | > 10 µM | 5.02 µM | 8.39 µM | 0.00356 µM | 8.16 µM | 1.77 µM | > 10 µM | > 10 µM | 0.253 µM | 1.01 µM | 0.884 µM | > 10 µM | 0.276 µM
BT549 | 0.00951 µM | 0.318 µM | > 1 µM | > 3.16 µM | > 10 µM | 0.0166 µM | > 10 µM | > 10 µM | 0.00106 µM | 3.97 µM | 0.00539 µM | 0.00884 µM | 7.26 µM | 0.302 µM | 0.0528 µM | 0.737 µM | > 10 µM | > 10 µM | > 10 µM | 0.157 µM | > 10 µM | > 10 µM | 3.64 µM | > 10 µM | 0.00315 µM | 3.97 µM | 2.21 µM | > 10 µM | 0.592 µM | 0.0668 µM | 1.42 µM | 2.37 µM | > 10 µM | 0.582 µM
SUM44PE | 0.00502 µM | 0.237 µM | > 1 µM | 0.212 µM | 0.27 µM | 0.0102 µM | > 10 µM | > 10 µM | < 0.001 µM | 0.0473 µM | 0.00453 µM | 0.00884 µM | 0.196 µM | 0.0499 µM | 0.00443 µM | 0.0082 µM | 4.3 µM | 1.77 µM | 6.6 µM | 0.00197 µM | > 10 µM | 4.21 µM | 9.59 µM | 5.47 µM | 0.000792 µM | 0.549 µM | 0.00347 µM | 0.65 µM | – | 0.0479 µM | 0.412 µM | 1.86 µM | > 10 µM | 0.0449 µM

Reference: the supplement of paper PMC9663587
